Like-named read-outs stand apart in the source and are kept apart here.
Tested on: iCell endothelial cells (human iPSC-derived ECs)
Experiment: High-content imaging cytotoxicity in iCell endothelial cells, 24 h
Type: cell-based
Details: Homo sapiens, Endothelial cell, iPSC-EC, 24 hr; for viability at 0.1 µM / activity at 0.1 µM: 0.10 µM; for minimal effective concentration: top concentration 100.00 µM
How it was run: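 Readouts were vehicle-normalised and fitted to a four-parameter logistic model. POD was set at one SD beyond 0.5% DMSO control means, and 100 µM was assigned when no response was seen. Cells were monolayers of iCell endothelial cells imaged after 24 h compound exposure using nuclear, mitochondrial and calcein dyes.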

[1] = 0.00 µM control = 100.00, read-out: endo.cyto.24hr
[2] = 0.00 µM control = 100.00, read-out: endo.mito.24hr
[3] = 0.00 µM control = 100.00, read-out: endo.mitoint.24hr
[4] = 0.00 µM control = 100.00, read-out: endo.nma.24hr
[5] = 0.00 µM control = 100.00, read-out: endo.tc.24hrs
[6] = read-out: endo.mitoint.24hr POD

| SMILES | viability at 0.01 µM [1] | activity at 0.01 µM [2] | activity at 0.01 µM [3] | activity at 0.01 µM [4] | viability at 0.01 µM [5] | viability at 0.1 µM [1] | activity at 0.1 µM [2] | activity at 0.1 µM [3] | activity at 0.1 µM [4] | viability at 0.1 µM [5] | viability at 1 µM [1] | activity at 1 µM [2] | activity at 1 µM [3] | activity at 1 µM [4] | viability at 1 µM [5] | viability at 10 µM [1] | activity at 10 µM [2] | activity at 10 µM [3] | activity at 10 µM [4] | viability at 10 µM [5] | also measured |
| --- | --- | --- | --- | --- | --- | --- | --- | --- | --- | --- | --- | --- | --- | --- | --- | --- | --- | --- | --- | --- | --- |
| Oc1ccc(-c2cccc(Cl)c2)cc1Cl [4-OH PCB11] | 99.5% | 99.5% | 103% | 103% | 99.5% | 102% | 102% | 94.9% | 99.2% | 102% | 97.1% | 96.8% | 97.1% | 102% | 97.1% | 106% | 106% | 92.4% | 97.2% | 106% | viability at 100 µM [1]: 57.3%; activity at 100 µM [2]: 52.7%; activity at 100 µM [3]: 68%; activity at 100 µM [4]: 88%; viability at 100 µM [5]: 78.1%; minimal effective concentration (read-out: endo.cyto.24hr POD): 43.6 µM; minimal effective concentration (read-out: endo.mito.24hr POD): 43.6 µM; minimal effective concentration [6]: 13 µM; minimal effective concentration (read-out: endo.nma.24hr POD): 9.66 µM; minimal effective concentration (read-out: endo.tc.24hrs POD): 62.1 µM |
| Oc1cc(Cl)c(-c2cc(Cl)ccc2Cl)cc1Cl [4-OH PCB52] | 96.8% | 96.3% | 90.5% | 104% | 96.8% | 94.9% | 94.5% | 89.8% | 104% | 94.9% | 101% | 101% | 88.2% | 103% | 101% | 98% | 98% | 98.3% | 103% | 98% | viability at 100 µM [1]: 42.3%; activity at 100 µM [2]: 39.7%; activity at 100 µM [3]: 51.4%; activity at 100 µM [4]: 89.3%; viability at 100 µM [5]: 49.3%; minimal effective concentration (read-out: endo.cyto.24hr POD): 13.2 µM; minimal effective concentration (read-out: endo.mito.24hr POD): 13.2 µM; minimal effective concentration [6]: 43.8 µM; minimal effective concentration (read-out: endo.nma.24hr POD): 63.5 µM; minimal effective concentration (read-out: endo.tc.24hrs POD): 16.6 µM |
| COc1ccc(-c2cccc(Cl)c2)cc1Cl [4-OMe PCB11] | 88.3% | 88.6% | 94.9% | 107% | 88.3% | 101% | 100% | 87% | 104% | 101% | 99.8% | 99.2% | 87.7% | 100% | 99.8% | 100% | 100% | 97.5% | 101% | 100% | viability at 100 µM [1]: 97.3%; activity at 100 µM [2]: 98%; activity at 100 µM [3]: 98.6%; activity at 100 µM [4]: 102%; viability at 100 µM [5]: 97.3%; minimal effective concentration (read-out: endo.cyto.24hr POD): 100 µM; minimal effective concentration (read-out: endo.mito.24hr POD): 100 µM; minimal effective concentration [6]: 100 µM; minimal effective concentration (read-out: endo.nma.24hr POD): 100 µM; minimal effective concentration (read-out: endo.tc.24hrs POD): 100 µM |

Reference: publication PMC7377239, “Cardiovascular Effects of Polychlorinated Biphenyls and Their Major Metabolites” (Environmental Health Perspectives, 2020)
